This is an account of results in patent US20250368649A1, “TETRAHYDROPYRIDOPYRIMIDINE PAN-KRAS INHIBITORS” (Mirati Therapeutics, Inc., priority 2022, published 2025).

For orientation: IC50 means the midpoint of a concentration-inhibition curve. Low values mean higher potency, high ones lower potency. One may read the inhibition as the change of the read-out against control, counted positive when it falls.

For one assay, the system named is A549 cells. Put plainly: Inhibition of KRas-mediated phosphorylation of ERK (Cisbio HTRF pERK), A549 cells. The settings on record: Homo sapiens; for IC50: A549, 3 h, 3 hr compound incubation; for inhibition at 0.1 µM: single point at 100 nM, 3 hrs compound incubation. Format: cell-based. On the technique in general: Time-resolved FRET reads energy transfer from a long-lived donor to a nearby acceptor.

In a further assay the target is KRas G12D (Homo sapiens, UniProt P01116, G12D). Put plainly: biochemical. The settings on record: Binding to KRas (IC50 nM) G12D, TR-FRET displacement, KRas G12D.
KRas G12D, sequence (P01116 1-169 isoform P01116-2 G12D): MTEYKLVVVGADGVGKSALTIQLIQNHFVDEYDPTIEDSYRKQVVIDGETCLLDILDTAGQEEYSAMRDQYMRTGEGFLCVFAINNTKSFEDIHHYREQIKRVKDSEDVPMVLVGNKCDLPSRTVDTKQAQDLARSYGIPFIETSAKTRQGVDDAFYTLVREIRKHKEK
The next assay deals with HCT116 cells. Put plainly: Inhibition of KRas-mediated phosphorylation of ERK (Cisbio HTRF pERK), HCT116 cells. Format: cell-based. The settings on record: Homo sapiens; for IC50: HCT-116, 3 h, 3 hr compound incubation; for inhibition at 0.1 µM: HCT-116, single point at 100 nM, 3 hrs compound incubation.
The next assay relates to PSN1 cells. Put plainly: Inhibition of KRas-mediated phosphorylation of ERK (Cisbio HTRF pERK), PSN1 cells. Format: cell-based. Conditions: Homo sapiens, PSN1, 3 h. Put shortly: (§1)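 Phospho-ERK signal measured by HTRF after cells had been plated at 6,000/well in RPMI supplemented with 10% FBS on day 1.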
Another assay addresses KRas G12V (Homo sapiens, UniProt P01116, G12V). Put plainly: biochemical. Conditions: Binding to KRas (IC50 nM) G12V, TR-FRET displacement, KRas G12V.
The next assay has as its system MKN1 cells. Put plainly: Inhibition of KRas-mediated phosphorylation of ERK (Cisbio HTRF pERK), MKN1 cells. Format: cell-based. Conditions: Homo sapiens. Put shortly:
as §1

In a further assay the test system is H460 cells. Put plainly: Inhibition of KRas-mediated phosphorylation of ERK (Cisbio HTRF pERK), H460 cells. It is filed as cell-based. The settings on record: Homo sapiens; for IC50: NCI-H460, 3 h, 3 hr compound incubation; for inhibition at 0.1 µM: NCI-H460, single point at 100 nM, 3 hrs compound incubation.
Another assay concerns H358 cells. Put plainly: Inhibition of KRas-mediated phosphorylation of ERK (Cisbio HTRF pERK), H358 cells. Format: cell-based. Conditions: Homo sapiens; for inhibition at 0.1 µM: NCI-H358, single point at 100 nM, 3 hrs compound incubation.
The subject of another assay is ASPC1 cells. Put plainly: Inhibition of KRas-mediated phosphorylation of ERK (Cisbio HTRF pERK), ASPC1 cells. Format: cell-based. Conditions: Homo sapiens, AsPC-1 cells; for IC50: ASPC1, 3 h, 3 hr compound incubation.
The next assay has as its system H727 cells. Put plainly: Inhibition of KRas-mediated phosphorylation of ERK (Cisbio HTRF pERK), H727 cells. It is filed as cell-based. The settings on record: Homo sapiens; for IC50: NCI-H727, 3 h, 3 hr compound incubation.
The target of a further assay is KRas G12R (Homo sapiens, UniProt P01116, G12R). Put plainly: biochemical. The settings on record: Binding to KRas (IC50 nM) G12R, TR-FRET displacement, KRas G12R.
KRas G12R, sequence (P01116 1-169 isoform P01116-2 G12R): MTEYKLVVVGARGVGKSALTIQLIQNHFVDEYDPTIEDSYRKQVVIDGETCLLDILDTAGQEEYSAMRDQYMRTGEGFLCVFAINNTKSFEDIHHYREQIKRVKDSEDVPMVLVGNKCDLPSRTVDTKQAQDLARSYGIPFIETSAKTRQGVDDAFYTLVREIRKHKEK
[1] abbreviates: 3 hour compound incubation, Cisbio pERK HTRF.
Where [2] appears, read: MKN-1, 3 hour compound incubation, Cisbio pERK HTRF.

KRas G12V, sequence (P01116 1-169 isoform P01116-2 G12V): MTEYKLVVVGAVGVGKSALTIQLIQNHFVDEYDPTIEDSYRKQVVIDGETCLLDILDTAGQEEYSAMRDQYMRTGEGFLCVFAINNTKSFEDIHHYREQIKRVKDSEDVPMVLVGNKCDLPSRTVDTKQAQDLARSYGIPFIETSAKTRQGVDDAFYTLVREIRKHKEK

In the case of `C[C@@H]1C[C@@H]1c1c(Cl)cc(O)cc1N1CCc2c(nc(OC[C@@]34CCCN3C[C@H](F)C4)nc2N2CCC[C@]3(CNS(=O)(=O)N3)C2)C1` (stereo in doubt) [Example 654, (R)-7-(7-(3-chloro-5-hydroxy-2-(cis-2-methylcyclopropyl)phenyl)-2-(((2R,7aS)-2-fluorotetrahydro-1H-pyrrolizin-7a(5H)-yl)methoxy)-5,6,7,8-tetrahydropyrido[3,4-d]pyrimidin-4-yl)-2-thia-1,3,7-triazaspiro[4.5]decane 2,2-dioxide], the half-inhibitory concentration (IC50) with A549 cells was 334 nM; at KRas G12D, 2 nM; with HCT116 cells it was 191 nM; in the assay with PSN1 cells (3 hr compound incubation) it was 2660 nM; at KRas G12V it was below 2 nM; in the assay on MKN1 cells (MKN-1, 3 hr compound incubation) it was 38.7 nM. Further, the 50% inhibitory concentration (IC50) was determined as 131 nM in the assay with H460 cells; 72 nM in the assay on H358 cells (NCI-H358, 3 h, 3 hr compound incubation); 197 nM with ASPC1 cells; 323 nM with H727 cells; 3 nM on KRas G12R.

On to `CCc1c(F)ccc2cc(O)cc(N3CCc4c(nc(OC[C@@]56CCCN5C[C@H](F)C6)nc4N4CCCn5nc(C(=O)N6CCC7CC6CN7)cc5C4)C3)c12` (stereo partly drawn) [Example 235, 2,6-diazabicyclo[3.2.1]octan-2-yl(5-(7-(8-ethyl-7-fluoro-3-hydroxynaphthalen-1-yl)-2-(((2R,7aS)-2-fluorohexahydro-1H-pyrrolizin-7a-yl)methoxy)-5,6,7,8-tetrahydropyrido[3,4-d]pyrimidin-4-yl)-5,6,7,8-tetrahydro-4H-pyrazolo[1,5-a][1,4]diazepin-2-yl)methanone], for which the inhibition at 0.1 µM is 13% in the assay on A549 cells; 5% in the assay with HCT116 cells; 2% in the assay on H460 cells; 8% with H358 cells; 30% in the assay with ASPC1 cells (ASPC1, single point at 100 nM, 3 hrs compound incubation); -5% in the assay with H727 cells (NCI-H727, single point at 100 nM, 3 hrs compound incubation). The IC50 is 2 nM at KRas G12D; above 10000 nM in the assay with PSN1 cells (setting [1]); below 2 nM at KRas G12V; 294 nM in the assay with MKN1 cells (setting [2]); 52 nM in the assay with ASPC1 cells (Cisbio pERK HTRF); 302 nM in the assay on H727 cells (Cisbio pERK HTRF). This compound displayed an IC50 at KRas G12R below 2 nM.

In the case of `CCc1c(F)ccc2cc(O)cc(N3CCc4c(nc(OC[C@@]56CCCN5C[C@H](F)C6)nc4N4CCCn5nc(C(=O)N6CC7(CCCN7)C6)cc5C4)C3)c12` [Example 277, (5-(7-(8-ethyl-7-fluoro-3-hydroxynaphthalen-1-yl)-2-(((2R,7aS)-2-fluorohexahydro-1H-pyrrolizin-7a-yl)methoxy)-5,6,7,8-tetrahydropyrido[3,4-d]pyrimidin-4-yl)-5,6,7,8-tetrahydro-4H-pyrazolo[1,5-a][1,4]diazepin-2-yl)(2,5-diazaspiro[3.4]octan-2-yl)methanone], the inhibition at 0.1 µM in the assay on A549 cells is 25%; in the assay on HCT116 cells, -2%; in the assay on H460 cells, 12%; in the assay on H358 cells, 64%. The IC50 on KRas G12D is below 2 nM; with PSN1 cells (setting [1]) it was above 10000 nM; on KRas G12V, below 2 nM; with MKN1 cells (setting [2]), 41.7 nM; with ASPC1 cells (Cisbio pERK HTRF), 37 nM; in the assay with H727 cells (Cisbio pERK HTRF), 210 nM. On KRas G12R, the concentration for half-maximal inhibition (IC50) was below 2 nM.

As for `CCc1c(F)ccc2cc(O)cc(N3CCc4c(nc(OC[C@@]56CCCN5C[C@H](F)C6)nc4N4CCCn5nc(C(=O)N6CCC7(CCN7)C6)cc5C4)C3)c12` (stereo partly drawn) [Example 278, (5-(7-(8-ethyl-7-fluoro-3-hydroxynaphthalen-1-yl)-2-(((2R,7aS)-2-fluorohexahydro-1H-pyrrolizin-7a-yl)methoxy)-5,6,7,8-tetrahydropyrido[3,4-d]pyrimidin-4-yl)-5,6,7,8-tetrahydro-4H-pyrazolo[1,5-a][1,4]diazepin-2-yl)(1,6-diazaspiro[3.4]octan-6-yl)methanone], the inhibition at 0.1 µM is 22% in the assay on A549 cells, -6% in the assay with HCT116 cells, -10% in the assay on H460 cells and 12% in the assay with H358 cells. Moreover, the concentration for half-maximal inhibition (IC50) at KRas G12D is below 2 nM; in the assay with PSN1 cells (setting [1]) it was above 10000 nM; on KRas G12V, below 2 nM; in the assay with MKN1 cells (setting [2]), 156 nM; in the assay with ASPC1 cells (Cisbio pERK HTRF), 68 nM; in the assay on H727 cells (Cisbio pERK HTRF) it was 659 nM. In addition, the IC50 at KRas G12R was below 2 nM.

Regarding `CCc1c(F)ccc2cc(O)cc(N3CCc4c(nc(OC[C@@]56CCCN5C[C@H](F)C6)nc4N4CCCn5nc(NC(C)=O)cc5C4)C3)c12` [Example 356, N-(5-(7-(8-ethyl-7-fluoro-3-hydroxynaphthalen-1-yl)-2-(((2R,7aS)-2-fluorohexahydro-1H-pyrrolizin-7a-yl)methoxy)-5,6,7,8-tetrahydropyrido[3,4-d]pyrimidin-4-yl)-5,6,7,8-tetrahydro-4H-pyrazolo[1,5-a][1,4]diazepin-2-yl)acetamide], the IC50 with A549 cells (Cisbio pERK HTRF) is 524 nM; on KRas G12D, below 2 nM; in the assay on PSN1 cells (setting [1]), above 10000 nM; on KRas G12V it was 3 nM; in the assay on MKN1 cells (setting [2]), 216 nM; in the assay with ASPC1 cells (Cisbio pERK HTRF), 262 nM. Also, the values for the IC50 with H727 cells (Cisbio pERK HTRF) and on KRas G12R were 284 nM and 3 nM, respectively. Besides, the values for the inhibition at 0.1 µM in the assay with HCT116 cells and with H460 cells were -2% and 28%, respectively.

With `CCc1c(NC)nn2c1CN(c1nc(OC[C@@]34CCCN3C[C@H](F)C4)nc3c1CCN(c1cc(O)cc4ccc(F)c(CC)c14)C3)CCC2` [Example 404], the concentration for half-maximal inhibition (IC50) was 134 nM in the assay with A549 cells (Cisbio pERK HTRF); 5 nM on KRas G12D; 424 nM in the assay on HCT116 cells (Cisbio pERK HTRF); above 10000 nM with PSN1 cells (setting [1]); 6 nM on KRas G12V; 43.5 nM in the assay on MKN1 cells (setting [2]). For the same compound, the IC50 in the assay on H460 cells (Cisbio pERK HTRF) is 178 nM; in the assay on ASPC1 cells (Cisbio pERK HTRF), 182 nM; with H727 cells (Cisbio pERK HTRF) it was 188 nM; at KRas G12R it was 3 nM.

On to `CCc1c(F)ccc2cc(O)cc(N3CCc4c(nc(OC[C@@]56CCCN5C[C@H](F)C6)nc4N4CCCSCC4)C3)c12` [Example 417, 5-ethyl-6-fluoro-4-(2-(((2R,7aS)-2-fluorohexahydro-1H-pyrrolizin-7a-yl)methoxy)-4-(1,4-thiazepan-4-yl)-5,6-dihydropyrido[3,4-d]pyrimidin-7(8H)-yl)naphthalen-2-ol], for which the IC50 in the assay with A549 cells (Cisbio pERK HTRF) is 63 nM; on KRas G12D it was 13 nM; with HCT116 cells (Cisbio pERK HTRF) it was 273 nM; in the assay on PSN1 cells (setting [1]), 5700 nM; on KRas G12V, below 2 nM; in the assay on MKN1 cells (setting [2]) it was 29.3 nM. Further, the IC50 in the assay on H460 cells (Cisbio pERK HTRF) was 84 nM; in the assay on ASPC1 cells (Cisbio pERK HTRF), 208 nM; in the assay on H727 cells (Cisbio pERK HTRF), 128 nM; on KRas G12R, below 2 nM.

On to `CCc1c(F)ccc2cc(O)cc(N3CCc4c(nc(OCC5(CN(C)C)CC5)nc4N4CCCn5nncc5C4)C3)c12` [Example 430, 4-(4-(7,8-dihydro-4H-[1,2,3]triazolo[1,5-a][1,4]diazepin-5(6H)-yl)-2-((1-((dimethylamino)methyl)cyclopropyl)methoxy)-5,6-dihydropyrido[3,4-d]pyrimidin-7(8H)-yl)-5-ethyl-6-fluoronaphthalen-2-ol], for which the 50% inhibitory concentration (IC50) is 592 nM with A549 cells (Cisbio pERK HTRF); below 2 nM on KRas G12D; 1030 nM with HCT116 cells (Cisbio pERK HTRF); above 10000 nM with PSN1 cells (setting [1]); below 2 nM at KRas G12V; 94.9 nM in the assay on MKN1 cells (setting [2]). Also, the half-inhibitory concentration (IC50) with H460 cells (Cisbio pERK HTRF) was 439 nM; in the assay with ASPC1 cells (Cisbio pERK HTRF), 134 nM; in the assay on H727 cells (Cisbio pERK HTRF), 269 nM; on KRas G12R it was below 2 nM.

Regarding `Oc1cc(N2CCc3c(nc(OC[C@@]45CCCN4C[C@H](F)C5)nc3N3CCCC4(CCSC4)C3)C2)c2c(Cl)c(F)ccc2c1` (stereo partly drawn) [Example 464, 5-chloro-6-fluoro-4-(2-(((2R,7aS)-2-fluorohexahydro-1H-pyrrolizin-7a-yl)methoxy)-4-(2-thia-7-azaspiro[4.5]decan-7-yl)-5,6-dihydropyrido[3,4-d]pyrimidin-7(8H)-yl)naphthalen-2-ol], the half-inhibitory concentration (IC50) at KRas G12D is 9 nM; with PSN1 cells (setting [1]), above 10000 nM; on KRas G12V, 8 nM; in the assay on MKN1 cells (setting [2]), 676 nM; in the assay with ASPC1 cells (Cisbio pERK HTRF) it was 1000 nM; with H727 cells (Cisbio pERK HTRF) it was 1180 nM. Besides, the half-inhibitory concentration (IC50) at KRas G12R stood at 12 nM. Moreover, the inhibition at 0.1 µM is 14% in the assay with HCT116 cells and -24% with H460 cells.
